Patent US20260274814A1, “THIENYL COMPOUNDS FOR THE TREATMENT OF A CENTRAL NERVOUS SYSTEM DISEASE OR DISORDER” (Coreterra Therapeutics, Inc., priority 2023, published 2026)
Where a name gives a salt, the structure may show the parent alone.

Tested on: mice
Experiment: Neuropharmacological Assay (SmartCube): automated behavioral signature of compound-treated mice compared with a database of reference drug classes
Format: in vivo
Details: for minimal effective dose: Mus musculus, ip, read-out: MED; for minimal effective dose / MED: minimal effective dose: dose having 45% or more total activity in SmartCube, i.p., if only one dose tested, that dose is shown; for AD / AG / AN / AP / CE / HL / MS / PS / SH / AX / UK: SmartCube class probability, 3.0 mg/kg i.p., 15 min before test
Method in brief: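 Probabilities of matching each neuropharmacological class (e.g. anxiolytic, antidepressant) come from algorithmic analysis of digitally recorded behaviour, reported for 3.0 mg/kg. Compounds were given intraperitoneally in a Pharmasolve/PEG/propylene glycol vehicle 15 min pre-test. Minimal effective dose is the lowest dose reaching 45% or more total activity.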

CN(C)C1CCc2cscc2C1.Cl (single isomer, unassigned) [Compound 156, N,N-dimethyl-4,5,6,7-tetrahydro-2-benzothiophen-5-amine hydrochloride]
minimal effective dose: 3 mg/kg
AD: ND (^ <4%)
AG: ND (^ <4%)
AN: ND (^ <4%)
AP: ND (^ <4%)
CE: ND (^ <4%)
HL: ND (^ <4%)
MS: ND (^ <4%)
PS: ND (^ <4%)
SH: ND (^ <4%)
AX (hydrochloride, 3 mg/kg): ++ (≥24%)
UK (hydrochloride, 3 mg/kg): ++ (≥24%)

CN(C)C1CCc2cscc2C1.Cl (single isomer, unassigned) [Compound 157, N,N-dimethyl-4,5,6,7-tetrahydro-2-benzothiophen-5-amine hydrochloride]
AD: ND (^ <4%)
AG: ND (^ <4%)
AN: ND (^ <4%)
AP: ND (^ <4%)
CE: ND (^ <4%)
HL: ND (^ <4%)
MS: ND (^ <4%)
PS: ND (^ <4%)
SH: ND (^ <4%)
AX (hydrochloride, 3 mg/kg): +++ (≥49%)
UK (hydrochloride, 3 mg/kg): ND (^ <4%)
MED: 3 mpk

c1scc2c1CCC(NCC1CC1)C2 (single isomer, unassigned) [Compound 158, N-(cyclopropylmethyl)-4,5,6,7-tetrahydro-2-benzothiophen-5-amine hydrochloride]
AD: ND (^ <4%)
AG: ND (^ <4%)
AN: ND (^ <4%)
AP: ND (^ <4%)
CE: ND (^ <4%)
HL: ND (^ <4%)
MS: ND (^ <4%)
PS: ND (^ <4%)
SH: ND (^ <4%)
AX (hydrochloride, 3 mg/kg): ++++ (≥74%)
UK (hydrochloride, 3 mg/kg): ND (^ <4%)
MED (hydrochloride): 1 mpk

c1scc2c1CCC(NCC1CC1)C2 (single isomer, unassigned) [Compound 159, N-(cyclopropylmethyl)-4,5,6,7-tetrahydro-2-benzothiophen-5-amine hydrochloride]
AD: ND (^ <4%)
AG: ND (^ <4%)
AN: ND (^ <4%)
AP: ND (^ <4%)
CE: ND (^ <4%)
HL: ND (^ <4%)
MS: ND (^ <4%)
PS: ND (^ <4%)
SH: ND (^ <4%)
AX (hydrochloride, 3 mg/kg): ND (^ <4%)
UK (hydrochloride, 3 mg/kg): + (≥4%)
MED (hydrochloride): >3 mpk

c1scc2c1CCC(NC1CCC1)C2 (single isomer, unassigned) [Compound 160, N-cyclobutyl-4,5,6,7-tetrahydro-2-benzothiophen-5-amine hydrochloride]
minimal effective dose: > 3 mg/kg
AD: ND (^ <4%)
AG: ND (^ <4%)
AN: ND (^ <4%)
AP: ND (^ <4%)
AX: ND (^ <4%)
CE: ND (^ <4%)
HL: ND (^ <4%)
MS: ND (^ <4%)
PS: ND (^ <4%)
SH: ND (^ <4%)
UK (hydrochloride, 3 mg/kg): + (≥4%)

c1scc2c1CCC(NC1CCC1)C2 (single isomer, unassigned) [Compound 161, N-cyclobutyl-4,5,6,7-tetrahydro-2-benzothiophen-5-amine hydrochloride]
AD: ND (^ <4%)
AG: ND (^ <4%)
AN: ND (^ <4%)
AP: ND (^ <4%)
AX: ND (^ <4%)
CE: ND (^ <4%)
HL: ND (^ <4%)
MS: ND (^ <4%)
PS: ND (^ <4%)
SH: ND (^ <4%)
UK (hydrochloride, 3 mg/kg): ND (^ <4%)
MED: >3 mpk

Cc1scc2c1CC(N)CC2 (single isomer, unassigned) [Compound 162, 3-methyl-4,5,6,7-tetrahydro-2-benzothiophen-5-amine hydrochloride]
minimal effective dose: 3 mg/kg
AD: ND (^ <4%)
AG: ND (^ <4%)
AN: ND (^ <4%)
AP: ND (^ <4%)
CE: ND (^ <4%)
HL: ND (^ <4%)
MS: ND (^ <4%)
PS: ND (^ <4%)
SH: ND (^ <4%)
UK: + (≥4%)
AX (hydrochloride, 3 mg/kg): +++ (≥49%)

Cc1scc2c1CC(N)CC2 (single isomer, unassigned) [Compound 163, 3-methyl-4,5,6,7-tetrahydro-2-benzothiophen-5-amine hydrochloride]
AD: ND (^ <4%)
AG: ND (^ <4%)
AN: ND (^ <4%)
AP: ND (^ <4%)
CE: ND (^ <4%)
HL: ND (^ <4%)
MS: ND (^ <4%)
PS: ND (^ <4%)
SH: ND (^ <4%)
UK: + (≥4%)
AX (hydrochloride, 3 mg/kg): ND (^ <4%)
MED (hydrochloride): >3 mpk

Cc1scc2c1CCC(N)C2 (single isomer, unassigned) [Compound 164, 1-methyl-4,5,6,7-tetrahydro-2-benzothiophen-5-amine hydrochloride]
minimal effective dose: 3 mg/kg
AG: ND (^ <4%)
AN: ND (^ <4%)
AP: ND (^ <4%)
AX: ND (^ <4%)
CE: ND (^ <4%)
MS: ND (^ <4%)
PS: ND (^ <4%)
SH: ND (^ <4%)
UK: ND (^ <4%)
AD (hydrochloride, 3 mg/kg): +++ (≥49%)
HL (hydrochloride, 3 mg/kg): ND (^ <4%)

Cc1scc2c1CCC(N)C2 (single isomer, unassigned) [Compound 165, 1-methyl-4,5,6,7-tetrahydro-2-benzothiophen-5-amine hydrochloride]
AG: ND (^ <4%)
AN: ND (^ <4%)
AP: ND (^ <4%)
AX: ND (^ <4%)
CE: ND (^ <4%)
MS: ND (^ <4%)
PS: ND (^ <4%)
SH: ND (^ <4%)
UK: ND (^ <4%)
AD (hydrochloride, 3 mg/kg): ND (^ <4%)
HL (hydrochloride, 3 mg/kg): ++++ (≥74%)
MED: 3 mpk

NC1CCc2cscc2C1 (single isomer, unassigned) [Compound 166, 4,5,6,7-tetrahydro-2-benzothiophen-5-amine hydrochloride]
minimal effective dose: 1 mg/kg
AG: ND (^ <4%)
AN: ND (^ <4%)
AX: +++ (≥49%)
CE: ND (^ <4%)
HL: ND (^ <4%)
MS: ND (^ <4%)
SH: ND (^ <4%)
UK: ND (^ <4%)
AD (hydrochloride, 3 mg/kg): + (≥4%)
AP (hydrochloride, 3 mg/kg): ++ (≥24%)
PS (hydrochloride, 3 mg/kg): ND (^ <4%)

NC1CCc2cscc2C1 (single isomer, unassigned) [Compound 167, 4,5,6,7-tetrahydro-2-benzothiophen-5-amine hydrochloride]
AG: ND (^ <4%)
AN: ND (^ <4%)
AX: +++ (≥49%)
CE: ND (^ <4%)
HL: ND (^ <4%)
MS: ND (^ <4%)
SH: ND (^ <4%)
UK: ND (^ <4%)
AD (hydrochloride, 3 mg/kg): ++ (≥24%)
AP (hydrochloride, 3 mg/kg): ND (^ <4%)
PS (hydrochloride, 3 mg/kg): + (≥4%)
MED: 1 mpk
